Drawing on patent US9409952B2, “Peptide-compound cyclization method” (Chugai Seiyaku Kabushiki Kaisha, priority 2011, dated 2016), this text covers Papp and microsomal CLint for 8 compounds.

Like-named read-outs stand apart in the source and are kept apart here. Starred links: 1 amine or outer side, 2 acyl side, 3 side chain; linkers in the order of their positions; H or OH if unused. Positions of bridges follow the written chain, without caps; N, C: chain ends. Non-standard residues stand in square brackets, D forms with d. Residues, ends and D or L forms follow the SMILES beside them. *: point of attachment. NMeF = CN[C@@H](Cc1ccccc1)C(=O)O; NMeGABA = CN(CCCC(=O)[*:2])[*:1]; NMeL = CN[C@@H](CC(C)C)C(=O)O; NMeA = CN[C@@H](C)C(=O)O; Piperidide = C1CCN(*)CC1; dNMeA = CN[C@H](C)C(=O)O; Sar = CNCC(=O)O; tBu = CC(C)(C)*

The nature of data set [1]: PAMPA (parallel artificial membrane permeability assay). Format: in vitro ADME. The settings on record: PAMPA. In short, it runs like this:
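Artificial membrane was 10% (w/v) egg lecithin plus 0.5% (w/v) cholesterol in dodecane on a PVDF filter. A 10 mM DMSO stock was added at 0.5% (v/v) to donor buffer (50 mM MOPSO, pH 6.5, 5.0% glycocholic acid). After 18 h at 37 °C, LC/MS or LC/UV gave donor and acceptor levels for Pe.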

Data set [2] can be described thus: Metabolic stability in human hepatic microsome. The data set is classed as in vitro ADME. The settings on record: microsomes.
The mark [3] stands for this setting: membrane permeation rate (Pe), 50 mM MOPSO buffer pH 6.5 with 5.0% glycocholic acid, 37° C., 18 hours, read-out: iPAMPA Pe.
[4] abbreviates: pH 7.4, human hepatic microsome, NADPH(+), read-out: CL NADPH(+).

On to `CC(C)C[C@H]1C(=O)N[C@H](C(=O)N2CCCCC2)CC(=O)N(C)[C@H](C)C(=O)N(C)[C@@H](Cc2ccccc2)C(=O)N(C)[C@@H](CC(C)C)C(=O)N[C@@H]([C@@H](C)O)C(=O)N(C)[C@@H](C)C(=O)N[C@@H](COC(C)(C)C)C(=O)N1C` [DP-682] ([dNMeA][NMeF][NMeL]T[NMeA]S(tBu)[NMeL]D-Piperidide; lactam N-8), for which the Papp at 18 hours, 50 µM in data set [1] (setting [3]) was determined as 13 ×10⁻⁶ cm/s. In data set [2] (setting [4]), the microsomal CLint at 1 uM worked out at 20 µL/min/mg.

As for `CC(C)C[C@H]1C(=O)N[C@H](C(=O)N2CCCCC2)CC(=O)N(C)[C@H](C)C(=O)N(C)[C@@H](Cc2ccccc2)C(=O)N(C)[C@@H](CC(C)C)C(=O)N[C@@H]([C@@H](C)O)C(=O)N(C)[C@@H](CC(C)C)C(=O)N[C@@H](COC(C)(C)C)C(=O)N1C` [DP-683] ([dNMeA][NMeF][NMeL]T[NMeL]S(tBu)[NMeL]D-Piperidide; lactam N-8), the Papp at 18 hours, 50 µM in data set [1] (setting [3]) worked out at 32 ×10⁻⁶ cm/s. Moreover, in data set [2] (setting [4]), the microsomal CLint at 1 uM stood at 53 µL/min/mg.

For the compound `CC(C)C[C@H]1C(=O)N[C@H](C(=O)N2CCCCC2)CC(=O)N[C@H](C)C(=O)N(C)[C@@H](Cc2ccccc2)C(=O)N(C)[C@@H](CC(C)C)C(=O)N[C@@H]([C@@H](C)O)C(=O)N(C)[C@@H](CC(C)C)C(=O)N[C@@H](COC(C)(C)C)C(=O)N1C` [DP-684] ([dA][NMeF][NMeL]T[NMeL]S(tBu)[NMeL]D-Piperidide; lactam N-8), in data set [1] (setting [3]), the Papp at 18 hours, 50 µM was 23 ×10⁻⁶ cm/s. Besides, the microsomal CLint at 1 uM in data set [2] (setting [4]) is 126 µL/min/mg.

With `CC(C)C[C@H]1C(=O)N(C)[C@@H](CC(C)C)C(=O)N[C@H](C(=O)N2CCCCC2)CC(=O)N(C)CCCC(=O)N(C)[C@@H](Cc2ccccc2)C(=O)N[C@@H]([C@@H](C)O)C(=O)N(C)[C@@H](C)C(=O)N[C@@H](COC(C)(C)C)C(=O)N1C` [DP-685] ([NMeGABA][NMeF]T[NMeA]S(tBu)[NMeL][NMeL]D-Piperidide; lactam N-8), the Papp at 18 hours, 50 µM in data set [1] (setting [3]) worked out at 28 ×10⁻⁶ cm/s. Also, the microsomal CLint at 1 uM in data set [2] (setting [4]) worked out at 90 µL/min/mg.

For the compound `CC(C)C[C@H]1C(=O)N(C)[C@@H](CC(C)C)C(=O)N[C@H](C(=O)N2CCCCC2)CC(=O)N(C)CCCC(=O)N(C)[C@@H](Cc2ccccc2)C(=O)N[C@@H]([C@@H](C)O)C(=O)N(C)[C@@H](CC(C)C)C(=O)N[C@@H](COC(C)(C)C)C(=O)N1C` [DP-686] ([NMeGABA][NMeF]T[NMeL]S(tBu)[NMeL][NMeL]D-Piperidide; lactam N-8), in data set [1] (setting [3]), the Papp at 18 hours, 50 µM was 36 ×10⁻⁶ cm/s. Also, the microsomal CLint at 1 uM in data set [2] (setting [4]) came out at 227 µL/min/mg.

For the compound `CC(C)C[C@@H]1NC(=O)[C@H](Cc2ccccc2)N(C)C(=O)[C@H]([C@@H](C)O)NC(=O)[C@H](Cc2ccccc2)N(C)C(=O)[C@H](C)N(C)C(=O)[C@H](C)N(C)C(=O)C[C@@H](C(=O)N2CCCCC2)NC(=O)[C@@H]2CCCN2C1=O` [DP-687] ([NMeA][NMeA][NMeF]T[NMeF]LPD-Piperidide; lactam N-8), the Papp at 18 hours, 50 µM in data set [1] (pH 6.5) stood at 10 ×10⁻⁶ cm/s. The microsomal CLint at 1 uM in data set [2] (human, pH 7.4, CL NADPH(+)) came to 10 µL/min/mg.

`CC(C)C[C@@H]1NC(=O)[C@H](Cc2ccccc2)N(C)C(=O)[C@H]([C@@H](C)O)NC(=O)[C@H](Cc2ccccc2)N(C)C(=O)[C@H](C)N(C)C(=O)[C@H](CC(C)C)N(C)C(=O)C[C@@H](C(=O)N2CCCCC2)NC(=O)[C@@H]2CCCN2C1=O` [DP-688] ([NMeL][NMeA][NMeF]T[NMeF]LPD-Piperidide; lactam N-8) displayed a Papp at 18 hours, 50 µM in data set [1] (pH 6.5) of 17 ×10⁻⁶ cm/s. In data set [2] (human, pH 7.4, CL NADPH(+)), this compound returned a microsomal CLint at 1 uM of 23 µL/min/mg.

For the compound `CC(C)C[C@H]1C(=O)N(C)[C@@H](Cc2ccccc2)C(=O)N(C)[C@@H](CC(C)C)C(=O)N[C@@H]([C@@H](C)O)C(=O)N(C)CC(=O)N[C@@H](COC(C)(C)C)C(=O)N(C)[C@@H](CC(C)C)C(=O)N[C@H](C(=O)N2CCCCC2)CC(=O)N1C` [DP-689] ([NMeL][NMeF][NMeL]T[Sar]S(tBu)[NMeL]D-Piperidide; lactam N-8), the Papp at 18 hours, 50 µM in data set [1] (setting [3]) worked out at 44 ×10⁻⁶ cm/s. The microsomal CLint at 1 uM in data set [2] (setting [4]) was 103 µL/min/mg.
